Results published in patent US7531162B2, “Transcobalamin receptor binding conjugates useful for treating abnormal cellular proliferation” (Mayo Foundation for Medical Education and Research, priority 2000, dated 2009).

How the values were obtained:
[1] = Deprez-Decampaneere et al. 1978; cited from earlier work
Intrinsic Factor (IF) = experiment: modified intrinsic factor blocking antibody (IFBA) assay, competition with Co-57-cyanocobalamin; type: binding; details: for binding to IF in the IFBA assay (in words): competition with Co-57 cyanocobalamin, compared with negative reference; for averaged percent binding to IF: non-labeled solution (1000 μg/10 mL saline, 1 μL) preincubated with purified IF, then Co-57-cyanocobalamin, average over five patients' runs, estimated from counts vs Clinical run
Experimental: (§1) Under dim light, 1000 μg of the non-labeled methyl-, adenosyl-, and cyanocobalamin-b-(4-aminobutyl)amide-DTPA, as well as 1000 μg of cyanocobalamin and DTPA (Sigma, St. Louis, Mo. 63178), were separately dissolved in 10 mL of normal saline at room temperature. Each of the five 1000 μg/10 mL samples was stored in sealed, aluminum-wrapped 10 mL vials to prevent exposure to light. No buffers were added to the solutions. The pH of the solutions, measured by a Beckman 40 pH meter (Beckman Instruments, Fullerton, Calif.): Cyanocobalamin=5.75, DTPA=3.78; cyano, methyl and adenosylcobalamin-DTPA analogues were 5.75, 6.10, and 6.19, respectively.
To assess in vitro binding to Intrinsic Factor (IF) and Transcobalamins (TC), the intrinsic factor blocking antibody (IFBA) and Unsaturated vitamin B12 Binding Capacity (UBBC) assays were performed with serum randomly obtained from five patients being evaluated for pernicious anemia at the Mayo Clinic. The IFBA and UBBC assays were first performed for clinical purposes as previously described by V. F. Fairbanks et al., Mayo Clin. Proc., 58, 203 (1983); Intrinsic Factor Blocking Antibody (^57Co) Radioassay-Package insert, Diagnostic Products Corp.; D. Grossowicz et al., Proc. Exp. Biol., 109, 604 (1962) and C. Gottlieb et al., Blood, 25, 6 (1965).
Next, the serum from the same five patients underwent modified IFBA and UBBC assays. Specifically, 1 μL of the five previously described solutions was separately incubated with purified IF or serum, to potentially saturate all IF and TC-binding sites.
After incubation for 20 minutes at room temperature and for another 20 minutes at 4° C., 500 μl of the stock (1000 μg/l) Cobalt-57-cyanocobalamin (Mallinckrodt Medical, Inc., St. Louis, Mo. 63134) solution was added and the usual IFBA and UBBC protocols were then followed. All supernatant activity was counted for four minutes on a gamma counter (Micromedix 10/20, Huntsville, Ala. 35805).
By using the counts of the Clinical run divided into the counts of the five solutions, the efficacy of binding to intrinsic factor can be estimated. The averaged percent binding of the five solutions to IF was: cyanocobalamin=92.5%; methyl-cobalamin-b-(4-aminobutyl)-amide-DTPA=63.2%; cyanocobalamin-b-(4-aminobutyl)-amide-DTPA=52.9%; adenosylcobalamin-b-(4-aminobutyl)-amide-DTPA=41.0% and 0.8% for DTPA.

[2] = pH of 1000 μg/10 mL solutions in normal saline; type: physicochemical; details: 1000 μg in 10 mL normal saline, room temperature, no buffers
Experimental: as §1

transcobalamin proteins [3] = experiment: modified Unsaturated vitamin B12 Binding Capacity (UBBC) assay with patient serum; design: species or system human; details: non-labeled solution (1000 μg/10 mL saline, 1 μL) preincubated with serum of five patients, then Co-57-cyanocobalamin
Experimental: Louis, Mo. 63178), were separately dissolved in 10 mL of normal saline at room temperature. […] No buffers were added to the solutions. The pH of the solutions, measured by a Beckman 40 pH meter (Beckman Instruments, Fullerton, Calif.): […] To assess in vitro binding to Intrinsic Factor (IF) and Transcobalamins (TC), the intrinsic factor blocking antibody (IFBA) and Unsaturated vitamin B12 Binding Capacity (UBBC) assays were performed with serum randomly obtained from five patients being evaluated for pernicious anemia at the Mayo Clinic. The IFBA and UBBC assays were first performed for clinical purposes as previously described by V. F. Fairbanks et al., Mayo Clin. Proc., 58, 203 (1983); Intrinsic Factor Blocking Antibody (^57Co) Radioassay-Package insert, Diagnostic Products Corp.; D. Grossowicz et al., Proc. Exp. Biol., 109, 604 (1962) and C. Gottlieb et al., Blood, 25, 6 (1965). Next, the serum from the same five patients underwent modified IFBA and UBBC assays. Specifically, 1 μL of the five previously described solutions was separately incubated with purified IF or serum, to potentially saturate all IF and TC-binding sites. […] Louis, Mo. 63134) solution was added and the usual IFBA and UBBC protocols were then followed. All supernatant activity was counted for four minutes on a gamma counter (Micromedix 10/20, Huntsville, Ala. 35805). […] Comparison of cyanocobalamin-DTPA to cyanocobalamin was 66.4% (Transcobalamin II receptor imaging via radiolabeled diethylene-triaminepentaacetate cobalamin analogs, J. Nucl. Med., 38, 717-723 (1997); also described in U.S. Pat. […] A. Collins, […], Tumor Imaging Indium-111-labeled DTPA-adenosylcobalamin, Mayo Clinic Proceedings, 1999; 74; 687-691; Biodistribution of Radiolabeled Adenosylcobalamin in Humans, Review of 30 patents submitted to Mayo Clinic Proceedings). This should improve tumor-to-background ratio, which can be evaluated in murine tumor models. Attachment of either the adenosyl and methyl group as the beta ligand should improve the biological activity as it did with the cyanocobalamin mono-DTPA compound (Transcobalamin II receptor imaging via radiolabeled diethylene-triaminepentaacetate cobalamin analogs, J. Nucl. Med., 38, 717-723 (1997); also described in U.S. Pat.

transcobalamin proteins [4] = details: relative to cyanocobalamin; J. Nucl. Med. 38, 717-723 (1997), U.S. Pat. No. 5,739,313; cited from earlier work

| Compound | hydrolysis in vivo to regenerate daunorubicin [1] | binding to IF in the IFBA assay (in words) (Intrinsic Factor (IF)) | averaged percent binding to IF (Intrinsic Factor (IF)) [%] | pH of the solution [2] | averaged percent binding to the transcobalamin proteins (transcobalamin proteins [3]) [%] | in vitro UBBC comparison to cyanocobalamin (transcobalamin proteins [4]) [%] |
| --- | --- | --- | --- | --- | --- | --- |
| COc1cccc2c1C(=O)c1c(O)c3c(c(O)c1C2=O)CC(O)(C(C)=O)CC3OC1CC(NC(=O)C(N)CC(C)C)C(O)C(C)O1 (single isomer, unassigned) [D isomer] | not |  |  |  |  |  |
| O=C(O)CN(CCN(CC(=O)O)CC(=O)O)CCN(CC(=O)O)CC(=O)O [DTPA, diethylenetriaminepentaacetic acid] |  | does not significantly bind to IF | 0.8 | 3.78 | 3.6 |  |
| COc1cccc2c1C(=O)c1c(O)c3c(c(O)c1C2=O)C[C@@](O)(C(C)=O)C[C@@H]3O[C@H]1C[C@H](NC(=O)[C@@H](N)CC(C)C)C(O)[C@H](C)O1 (stereo partly drawn) [N-(L-leucyl) daunorubicin] | hydrolyzed in vivo to regenerate daunorubicin |  |  |  |  |  |
| Adenosylcobalamin-b-(4-aminobutyl)amide DTPA |  |  | 41.0 | 6.19 | 90.4 |  |
| Cyanocobalamin-b-(4-aminobutyl)amide DTPA |  |  | 52.9 | 5.75 | 66.4 | 66.4 |
| Methylcobalamin-b-(4-aminobutyl)amide DTPA |  |  | 63.2 | 6.10 | 94.0 |  |
| cyanocobalamin |  | competitively inhibit Co-57 cyanocobalamin from binding to intrinsic factor | 92.5 | 5.75 | 100 |  |
